Read-outs that look alike come from different tables or passages of the source.
Legend:
[1] = system: stimulated PBMC; assay: IC50 on stimulated PBMC (actively dividing cells); details: for Therapeutic Index = IC50 resting PBMC/IC50 cancer cell: PBMC Stim; for Therapeutic Index = IC50 stimulated PBMC/IC50 cancer cell, AVERAGE: average across the 7 cancer cell lines, Table VII
Protocol: (§3) The IC^50 in PBMC were tested in 2 different activation status:
stimulated—actively dividing cells
(§4) IC50 of the compounds was determined on fresh cells isolated from human blood (PBMC). The compounds toxicity was determined as follow: Therapeutic Index=Safety/Potency=IC50 stimulated PBMC_/IC50 cancer cell

[2] = system: Caspase 3/7; assay: Caspase activity assay in MiaPaca2 cells; type: cell-based; details: 8, 24, 48 hours, FIG. 11
Protocol: To better analyze the phenomenon the enzymatic activity of Caspase 8 (initiator caspase for Extrinsic Pathway) and Caspase 9 (initiator caspase for Intrinsic Pathway) and of Caspases 3 and 7 (effector caspases) were measured.
After 8, 24, & 48 hours incubation with test compounds, cells were lysed in buffer containing the caspase 3/7 or 8 or 9 substrate and a stable luciferase in proprietary buffers. The lysates were transferred to white opaque plates before measuring luminescence in a Tecan S afire instrument. Parallel plates treated identically, were used to determine viable cells. All caspase activities were corrected for the number of viable cells.

[3] = system: MDA-MB-231; assay: In vitro proliferation / cytotoxic assay on breast cancer cells (cell titer glo); type: cell-based
Protocol: (§1) For the cytotoxic assay: cells seeded in 96 well flat bottom culture plates in media containing charcoal stripped serum. After 24 hours test compounds were added to the cells. DMSO was used as the vehicle negative control and RU486 as the positive control. After 72 hours incubation cell were harvested, lysed and viability determined using the cell titer glow assay for viability.

[4] = system: HT29; assay: In vitro proliferation, larger cancer cell line panel
[5] = system: HT29; assay: MTT colorimetric assay, 72 h; type: cell-based; details: for Inhibition (%) on HT29: 72 h, MTT; for Therapeutic Index (TI), Resting PBMC: IC50 resting PBMC / IC50 HT29; for Therapeutic Index (TI), Stimulated PBMC: IC50 stimulated PBMC / IC50 HT29
Protocol: The experiment was performed to test and define anticancer activity in vitro of Cortexolone 17α-benzoate and cortexolone 17α-valerate-21-propionate on cell lines representatives of epithelial intestinal tumors, namely HT29. The experiment method consisted in: • 1. Monolayer HT-29 cells were plated in: 96-wells plates at the density of 2×10^4 cells/mL. The cells plated were kept at 37° C. in 5% CO2 and left to attach for 24 h. • 2. […] After 72 h of treatment, the MTT colorimetric assay was performed.

[6] = system: BxPC3; assay: In vitro proliferation, larger cancer cell line panel
[7] = system: MCF7; assay: In vitro proliferation / cytotoxic assay on breast cancer cells (cell titer glo)
Protocol: as §1

[8] = system: PC3; assay: ATP-dependent proliferation/viability assay (Cell Titer Glo), 3 days; details: PC3
Protocol: (§2) The experiment was performed to test and to define the antitumor activity in vitro of cortexolone 17α-benzoate on LNCaP (AR+) and PC3 (AR^−), representative of Prostatic cancer cell lines with Androgen Receptor (AR) positive or negative expression, respectively. The experimental method consisted of: • 1. […] After 24 hours, 10 nM DHT (dihydrotestosterone) with or without anti-androgen compounds, or DMSO vehicle (negative control) was added to the cultures. • 3.
as §2, with “define” for “define the”, “17α-valerate-21-propionate (CB-03-10)” for “17α-benzoate”, “AR” for “Androgen Receptor (AR)”

[9] = system: LNCaP; assay: as above; details: LNCaP
Protocol: as §2
as §2, with “define” for “define the”, “17α-valerate-21-propionate (CB-03-10)” for “17α-benzoate”, “AR” for “Androgen Receptor (AR)”

[10] = system: MiaPaca2; assay: as above; details: for TI on Resting PBMC: IC50 resting PBMC / IC50 MiaPaca2; for TI on Stimulated PBMC: IC50 stimulated PBMC / IC50 MiaPaca2
[11] = system: resting PBMC; assay: IC50 on resting PBMC (quiescent, non-dividing cells); type: cell-based, human
Protocol: The ratio from IC50 of the compounds on peripheral blood mononuclear cells (PBMC) and the IC50 on cancer cell lines constitute the Therapeutic Index and show what is the safer compound to be tested.
as §3
resting—quiescent, non-dividing cells
as §4

[12] = system: MiaPaca-2 pancreatic tumor xenograft; assay: Human pancreatic tumor xenograft in nude mice, subcutaneous treatment; type: in vivo; details: for average tumor size increase: Cyproterone Acetate treatment groups (7.4 mg/kg and 37 mg/kg) SC daily 28 days
Protocol: The test was carried out comparing the anti-tumor activity of cortexolone 17α-benzoate at two different dosages (8.0 mg/kg, corresponding approximately at 230 μM, and 40 mg/kg, corresponding approximately at 1150 μM), versus the vehicle (i.e. 0.4% (v/v) tween 80 and 0.5% (w/v) carboxymethylcellulose in normal saline) and versus the comparator Cyproterone Acetate at two different dosages (7.4 mg/kg and 37 mg/kg).
1×10^6 MiaPaca-2 cells suspended in matrigel were subcutaneously injected into 6 week old athymic nude mice.
The treatment with the tested compounds, with the vehicle and with the comparative compound, was initiated after the tumor volume has reached 50 mm3 after transplantation. All compounds were injected 100 μL/mouse subcutaneously of low dose solution (approximately 230 μM) or 100 μL/mouse of high dose solution (approximately 1150 μM) of cortexolone 17α-benzoate, vehicle and cyproterone acetate, respectively. Compounds and controls were administered subcutaneously daily for 28 days.
Tumors were measured every 4 days with a digital caliper.
The results are plotted in FIG. 1 as average change in tumor volume relative to the start of treatment. Tumor volume was calculated according to the formula 0.5236(r1)^2(r2) where r1<r2.
The test was carried out comparing the anti-tumor activity of cortexolone 17α-valerate-21-propionate (CB-03-10) at two different dosages (approximately 8.6 mg/kg and 43 mg/kg) versus the vehicle (i.e. 0.4% (v/v) tween 80 and 0.5% (w/v) carboxymethylcellulose in normal saline) and versus the comparator Cyproterone Acetate at two different dosages (7.4 mg/kg and 37 mg/kg).
The treatment with the tested compound, with the vehicle and with the comparative compound was initiated after the tumor has reached a volume of 50 mm3 after implantation, injecting subcutaneously 100 μL/mouse of low dose solution (approximately 230 μM) or 100 μL/mouse of high dose solution (approximately 1150 μM) of cortexolone 17α-valerate-21-propionate (CB-03-10), vehicle and cyproterone acetate, respectively. Compounds and controls were administered subcutaneously daily for 28 days.
The results are plotted in FIG. 2 as average change in tumor volume relative to the start of treatment. Tumor volume was calculated according to the formula 0.5236(r1)^2(r2) where r1<r2.
CPA a well-known anti-androgen was used as control. Briefly 1×10^6 MiaPaca2 cells suspended in matrigel were subcutaneously (SC) injected into 6 week old male athymic nude mice. Tumors were measured every 4 days with a digital caliper. Tumor volume was calculated according to the formula: 0.5236(r1)2(r2) where r1<r2. Treatment with CB-03-10 and controls compounds was initiated after the tumor had reached 50 mm3. Compounds diluted in DMSO/2-hydroxypropyl b-cyclodextrin (vehicle) were injected subcutaneously (SC) daily (100 μL/mouse) at the concentration of 40 mg/Kg daily for 28 consecutive days.

[13] = system: Panc1; assay: ATP-dependent proliferation/viability assay (Cell Titer Glo), 3 days; details: for TI on Resting PBMC: IC50 resting PBMC / IC50 Panc1; for TI on Stimulated PBMC: IC50 stimulated PBMC / IC50 Panc1
[14] = Experiment 1, 0 = higher toxicity in PBMC
[15] = Experiment 1, 0 = higher toxicity in PBMC than in the cancer cell lines

## CCCCC(=O)O[C@]1(C(=O)CO)CC[C@H]2[C@@H]3CCC4=CC(=O)CC[C@]4(C)[C@H]3CC[C@@]21C [CB-03-05, cortexolone 17α-valerate]
[1]; healthy lymphocyte, Table IV
  Therapeutic Index = IC50 resting PBMC/IC50 cancer cell: 1
[1]
  Therapeutic Index = IC50 stimulated PBMC/IC50 cancer cell, AVERAGE: 3
[2]
  Caspase 3/7 induction / caspase activation profile: does not show a good profile for caspase activation
[3]; MDA-MB-231 (ER-PR-GR++), TNBC, 72 hours, Table VI prints no unit (same values in Table III in μM)
  IC50: Not active
[3]; MDA-MB-231, Table III
  in vitro proliferation IC50: not active
[4]; Homo sapiens, HT-29, read-out: in vitro proliferation IC50
  IC50: 530 µM

## C[C@]12CCC(=O)C=C1CC[C@@H]1[C@@H]2CC[C@@]2(C)[C@H]1CC[C@]2(OC(=O)c1ccccc1)C(=O)CO [CB-03-06, cortexolone 17α-benzoate]
[1]; healthy lymphocyte, Table IV
  Therapeutic Index = IC50 resting PBMC/IC50 cancer cell: 1
[1]
  Therapeutic Index = IC50 stimulated PBMC/IC50 cancer cell, AVERAGE: 5
[1]; read-out: IC50 on Stimulated PBMC, Example 7 Experiment 1
  IC50: 113 µM
[1]; read-out: IC50 on Stimulated PBMC, Example 7 Experiment 2
  IC50: 97 µM
[1]; read-out: In vitro proliferation IC50, PBMC STIMULATED, healthy lymphocyte, Table IV
  IC50: 97 µM
[4]; HT29, Table IV
  Therapeutic Index = IC50 resting PBMC/IC50 cancer cell: 6
[4]; HT29, Table VII
  Therapeutic Index = IC50 stimulated PBMC/IC50 cancer cell: 6
[4]; read-out: In vitro proliferation IC50, HT29, Table IV
  IC50: 10 µM
[5]; 0.8 micromolar
  Inhibition (%) on HT29: −1.55%
[5]; 4 micromolar
  Inhibition (%) on HT29: 20.40%
[5]; 20 micromolar
  Inhibition (%) on HT29: 53.60%
[5]; 100 micromolar
  Inhibition (%) on HT29: 92.24%
[5]; 500 micromolar
  Inhibition (%) on HT29: 92.31%
[5]; Example 9 Experiment 1
  Therapeutic Index (TI), Resting PBMC: 6
  Therapeutic Index (TI), Stimulated PBMC: 7
[5]; Example 9 Experiment 2
  Therapeutic Index (TI), Resting PBMC: 5
  Therapeutic Index (TI), Stimulated PBMC: 6
[6]; Table IV
  Therapeutic Index = IC50 resting PBMC/IC50 cancer cell: 3
[6]; Table VII
  Therapeutic Index = IC50 stimulated PBMC/IC50 cancer cell: 3
[7]; MCF7, Table IV
  Therapeutic Index = IC50 resting PBMC/IC50 cancer cell: 4
[7]; MCF7, Table VII
  Therapeutic Index = IC50 stimulated PBMC/IC50 cancer cell: 4
[8]; Table IV
  Therapeutic Index = IC50 resting PBMC/IC50 cancer cell: 3
[8]; Table VII
  Therapeutic Index = IC50 stimulated PBMC/IC50 cancer cell: 3
[9]; Table IV
  Therapeutic Index = IC50 resting PBMC/IC50 cancer cell: 8
[9]; Table VII
  Therapeutic Index = IC50 stimulated PBMC/IC50 cancer cell: 8
[10]; [14]
  TI on Resting PBMC: 6
  TI on Stimulated PBMC: 7
[10]; Experiment 2
  TI on Resting PBMC: 4
  TI on Stimulated PBMC: 5
[10]; MiaPaca2, Table IV
  Therapeutic Index = IC50 resting PBMC/IC50 cancer cell: 5
[10]; MiaPaca2, Table VII
  Therapeutic Index = IC50 stimulated PBMC/IC50 cancer cell: 5
[11]; Example 7 Experiment 1
  IC50: 100 µM
[11]; Example 7 Experiment 2
  IC50: 85 µM
[12]; Example 5, high dose 40 mg/kg (approximately 1150 μM, 100 μL/mouse) SC daily 28 days
  pancreatic tumor size increase relative to size when treatment was initiated: less than 5 fold
[12]; Examples 5 and 6, FIG. 3, same animal model
  in vivo antitumor activity compared with Cyproterone Acetate: antitumor activity higher than Cyproterone Acetate
[13]; [14]
  TI on Resting PBMC: 4
[13]; Experiment 2
  TI on Resting PBMC: 3
  TI on Stimulated PBMC: 3
[13]; [15]
  TI on Stimulated PBMC: 5
[13]; Panc1, Table IV
  Therapeutic Index = IC50 resting PBMC/IC50 cancer cell: 3
[13]; Panc1, Table VII
  Therapeutic Index = IC50 stimulated PBMC/IC50 cancer cell: 3

## CC(=O)O[C@]1(C(C)=O)CC[C@H]2[C@@H]3C=C(Cl)C4=CC(=O)[C@@H]5C[C@@H]5[C@]4(C)[C@H]3CC[C@@]21C [Cyproterone Acetate, Cyproterone acetate, reference compound]
[1]; healthy lymphocyte, Table IV
  Therapeutic Index = IC50 resting PBMC/IC50 cancer cell: 1
[1]
  Therapeutic Index = IC50 stimulated PBMC/IC50 cancer cell, AVERAGE: 1
[9]; Homo sapiens, 72 h, LNCaP (AR+), 10 nM DHT, 3 days, Examples 1-2 Experiment 1, sigmoidal dose response fit
  IC50: 29 µM
[12]; Example 5
  average tumor size increase: 12 fold
[12]; Example 6
  average tumor size increase: ≥ 12 fold
[12]; Example 22, 40 mg/Kg SC daily 28 days, vehicle 60 days
  Median survival: 40 days
[13]; [15]
  TI on Stimulated PBMC: 1

## Nc1ccn([C@@H]2O[C@H](CO)[C@@H](O)C2(F)F)c(=O)n1 [Gemcitabine, reference compound]
[2]
  Caspase 3/7 induction / caspase activation profile: not seen until the 48 hours mark

## CC#C[C@]1(O)CC[C@H]2[C@@H]3CCC4=CC(=O)CCC4=C3[C@@H](c3ccc(N(C)C)cc3)C[C@@]21C [RU486, Mifepristone, reference compound]
[7]; MCF7 (ER+PR+GR+/-), 72 hours, Table VI prints no unit (same values in Table III in μM)
  IC50: Not active
